{
  "source": "patent US6355799B1",
  "about": "“Substituted benzene compounds, process for their preparation, and herbicidal and defoliant compositions containing them” (ISK Americas Incorporated, priority 1997, dated 2002)",
  "type_in_all_cases": "in vivo",
  "key": {"[1]": {"test_system": "barnyardgrass (Echinochloa crus-galli, ECHCG)", "test": "Post-emerge test, greenhouse herbicide activity screening", "conditions": "post-emerge, phytotoxicity rating 0-100 at 14 days after application", "summary_of_the_method": "(§1)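 Rating: 0–100 visual injury, 14 DAA. Application: acetone, 187 l/ha, 15–1000 g ai/ha, flat-fan track sprayer with nozzle 40–45 cm above soil or canopy. Post-emerge runs used 0.25% v/v surfactant on 2–3 leaf plants.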"}, "[2]": {"test_system": "johnsongrass (Sorghum halepense, SORHA)", "test": "Post-emerge test, greenhouse herbicide activity screening", "conditions": "post-emerge, phytotoxicity rating 0-100 at 14 days after application", "summary_of_the_method": "as §1"}, "[3]": {"test_system": "large crabgrass (Digitaria sanguinalis, DIGSA)", "test": "Post-emerge test, greenhouse herbicide activity screening", "conditions": "post-emerge, phytotoxicity rating 0-100 at 14 days after application", "summary_of_the_method": "as §1"}, "[4]": {"test_system": "sicklepod (Cassia obtusifolia, CASOB)", "test": "Post-emerge test, greenhouse herbicide activity screening", "conditions": "post-emerge, phytotoxicity rating 0-100 at 14 days after application", "summary_of_the_method": "as §1"}, "[5]": {"test_system": "velvetleaf (Abutilon theophrasti, ABUTH)", "test": "Post-emerge test, greenhouse herbicide activity screening", "conditions": "post-emerge, phytotoxicity rating 0-100 at 14 days after application", "summary_of_the_method": "as §1"}, "[6]": {"test_system": "lambsquarters (Chenopodium album, CHEAL)", "test": "Post-emerge test, greenhouse herbicide activity screening", "conditions": "post-emerge, phytotoxicity rating 0-100 at 14 days after application", "summary_of_the_method": "as §1"}, "[7]": {"test_system": "ivyleaf morningglory (Ipomoea hederacea, IPOHE)", "test": "Post-emerge test, greenhouse herbicide activity screening", "conditions": "post-emerge, phytotoxicity rating 0-100 at 14 days after application", "summary_of_the_method": "as §1"}, "[8]": {"test_system": "green foxtail (Setaria viridis, SETVI)", "test": "Post-emerge test, greenhouse herbicide activity screening", "conditions": "post-emerge, phytotoxicity rating 0-100 at 14 days after application", "summary_of_the_method": "as §1"}, "[9]": {"test_system": "redroot pigweed (Amaranthus retroflexus, AMARE)", "test": "Post-emerge test, greenhouse herbicide activity screening", "conditions": "post-emerge, phytotoxicity rating 0-100 at 14 days after application", "summary_of_the_method": "as §1"}, "[10]": {"test_system": "barnyardgrass (Echinochloa crus-galli, ECHCG)", "test": "Pre-emerge test, greenhouse herbicide activity screening", "conditions": "pre-emerge, phytotoxicity rating 0-100 at 14 days after application", "summary_of_the_method": "(§2)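 Compounds in acetone were track-sprayed at 187 l/ha, 15–1000 g ai/ha, onto sandy loam pots. Pre-emerge seeds were sown one day before spraying, with surface watering afterwards. Post-emerge plants were at the 2–3 leaf stage and sprayed with 0.25% v/v non-ionic surfactant. Injury was rated 0–100 at 14 days.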"}, "[11]": {"test_system": "johnsongrass (Sorghum halepense, SORHA)", "test": "Pre-emerge test, greenhouse herbicide activity screening", "conditions": "pre-emerge, phytotoxicity rating 0-100 at 14 days after application", "summary_of_the_method": "as §2"}, "[12]": {"test_system": "large crabgrass (Digitaria sanguinalis, DIGSA)", "test": "Pre-emerge test, greenhouse herbicide activity screening", "conditions": "pre-emerge, phytotoxicity rating 0-100 at 14 days after application", "summary_of_the_method": "as §2"}, "[13]": {"test_system": "sicklepod (Cassia obtusifolia, CASOB)", "test": "Pre-emerge test, greenhouse herbicide activity screening", "conditions": "pre-emerge, phytotoxicity rating 0-100 at 14 days after application", "summary_of_the_method": "as §2"}, "[14]": {"test_system": "velvetleaf (Abutilon theophrasti, ABUTH)", "test": "Pre-emerge test, greenhouse herbicide activity screening", "conditions": "pre-emerge, phytotoxicity rating 0-100 at 14 days after application", "summary_of_the_method": "as §2"}, "[15]": {"test_system": "lambsquarters (Chenopodium album, CHEAL)", "test": "Pre-emerge test, greenhouse herbicide activity screening", "conditions": "pre-emerge, phytotoxicity rating 0-100 at 14 days after application", "summary_of_the_method": "as §2"}, "[16]": {"test_system": "ivyleaf morningglory (Ipomoea hederacea, IPOHE)", "test": "Pre-emerge test, greenhouse herbicide activity screening", "conditions": "pre-emerge, phytotoxicity rating 0-100 at 14 days after application", "summary_of_the_method": "as §2"}, "[17]": {"test_system": "green foxtail (Setaria viridis, SETVI)", "test": "Pre-emerge test, greenhouse herbicide activity screening", "conditions": "pre-emerge, phytotoxicity rating 0-100 at 14 days after application", "summary_of_the_method": "as §2"}, "[18]": {"test_system": "field corn (Zea mays L., var. Dekalb 535, CORN)", "test": "Pre-emerge test, crop safety", "conditions": "crop damage, pre-emerge, phytotoxicity rating 0-100 at 14 days after application", "summary_of_the_method": "(§3)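 Herbicidal damage is scored 0 (none) to 100 (complete plant death) two weeks after a simulated field spray. Rates span 15–1000 g ai/ha, delivered in acetone at 187 l/ha. For post-emergence treatments, plants have 2–3 leaves and the spray carries 0.25% v/v non-ionic surfactant.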"}, "[19]": {"test_system": "upland rice (Oryza sp., var. Tebonnet, RICE)", "test": "Pre-emerge test, crop safety", "conditions": "crop damage, pre-emerge, phytotoxicity rating 0-100 at 14 days after application", "summary_of_the_method": "as §3"}, "[20]": {"test_system": "redroot pigweed (Amaranthus retroflexus, AMARE)", "test": "Pre-emerge test, greenhouse herbicide activity screening", "conditions": "pre-emerge, phytotoxicity rating 0-100 at 14 days after application", "summary_of_the_method": "as §1"}, "[21]": {"test_system": "field corn (Zea mays L., var. Dekalb 535, CORN)", "test": "Post-emerge test, crop safety", "conditions": "post-emerge, crop damage rating 0-100 at 14 days after application", "summary_of_the_method": "as §2"}, "[22]": {"test_system": "upland rice (Oryza sp., var. Tebonnet, RICE)", "test": "Post-emerge test, crop safety", "conditions": "post-emerge, crop damage rating 0-100 at 14 days after application", "summary_of_the_method": "as §2"}},
  "data": [
    {"smiles": "COc1ccccc1COC(=O)Nc1c(C)c(Cl)cc(F)c1-n1c(=O)cc(C(F)(F)F)n(C)c1=O", "note": "[4-58]", "values": [
      {"measurement": "Post-emerge Herbicidal Activity ECHCG", "setting": "[1]; 63 g ai/ha", "value": 30},
      {"measurement": "Post-emerge Herbicidal Activity ECHCG", "setting": "[1]; 250 g ai/ha", "value": 40},
      {"measurement": "Post-emerge Herbicidal Activity SORHA", "setting": "[2]; 63 g ai/ha", "value": 30},
      {"measurement": "Post-emerge Herbicidal Activity SORHA", "setting": "[2]; 250 g ai/ha", "value": 50},
      {"measurement": "Post-emerge Herbicidal Activity DIGSA", "setting": "[3]; 63 g ai/ha", "value": 20},
      {"measurement": "Post-emerge Herbicidal Activity DIGSA", "setting": "[3]; 250 g ai/ha", "value": 60},
      {"measurement": "Post-emerge Herbicidal Activity CASOB", "setting": "[4]; 63 g ai/ha", "value": 90},
      {"measurement": "Post-emerge Herbicidal Activity CASOB", "setting": "[4]; 250 g ai/ha", "value": 100},
      {"measurement": "Post-emerge Herbicidal Activity ABUTH", "setting": "[5]; 63 g ai/ha", "value": 100},
      {"measurement": "Post-emerge Herbicidal Activity ABUTH", "setting": "[5]; 250 g ai/ha", "value": 100},
      {"measurement": "Post-emerge Herbicidal Activity CHEAL", "setting": "[6]; 63 g ai/ha", "value": 100},
      {"measurement": "Post-emerge Herbicidal Activity CHEAL", "setting": "[6]; 250 g ai/ha", "value": 100},
      {"measurement": "Post-emerge Herbicidal Activity IPOHE", "setting": "[7]; 63 g ai/ha", "value": 100},
      {"measurement": "Post-emerge Herbicidal Activity IPOHE", "setting": "[7]; 250 g ai/ha", "value": 100},
      {"measurement": "Post-emerge Herbicidal Activity SETVI", "setting": "[8]; 63 g ai/ha", "value": 50},
      {"measurement": "Post-emerge Herbicidal Activity SETVI", "setting": "[8]; 250 g ai/ha", "value": 90},
      {"measurement": "Post-emerge Herbicidal Activity AMARE", "setting": "[9]; 63 g ai/ha", "value": 100},
      {"measurement": "Post-emerge Herbicidal Activity AMARE", "setting": "[9]; 250 g ai/ha", "value": 100},
      {"measurement": "Pre-emerge Herbicidal Activity ECHCG", "setting": "[10]; rate 63 g ai/ha", "value": 30},
      {"measurement": "Pre-emerge Herbicidal Activity ECHCG", "setting": "[10]; rate 250 g ai/ha", "value": 70},
      {"measurement": "Pre-emerge Herbicidal Activity SORHA", "setting": "[11]; rate 63 g ai/ha", "value": 20},
      {"measurement": "Pre-emerge Herbicidal Activity SORHA", "setting": "[11]; rate 250 g ai/ha", "value": 60},
      {"measurement": "Pre-emerge Herbicidal Activity DIGSA", "setting": "[12]; rate 63 g ai/ha", "value": 30},
      {"measurement": "Pre-emerge Herbicidal Activity DIGSA", "setting": "[12]; rate 250 g ai/ha", "value": 100},
      {"measurement": "Pre-emerge Herbicidal Activity CASOB", "setting": "[13]; rate 63 g ai/ha", "value": 70},
      {"measurement": "Pre-emerge Herbicidal Activity CASOB", "setting": "[13]; rate 250 g ai/ha", "value": 100},
      {"measurement": "Pre-emerge Herbicidal Activity ABUTH", "setting": "[14]; rate 63 g ai/ha", "value": 100},
      {"measurement": "Pre-emerge Herbicidal Activity ABUTH", "setting": "[14]; rate 250 g ai/ha", "value": 100},
      {"measurement": "Pre-emerge Herbicidal Activity CHEAL", "setting": "[15]; rate 63 g ai/ha", "value": 100},
      {"measurement": "Pre-emerge Herbicidal Activity CHEAL", "setting": "[15]; rate 250 g ai/ha", "value": 100},
      {"measurement": "Pre-emerge Herbicidal Activity IPOHE", "setting": "[16]; rate 63 g ai/ha", "value": 30},
      {"measurement": "Pre-emerge Herbicidal Activity IPOHE", "setting": "[16]; rate 250 g ai/ha", "value": 100},
      {"measurement": "Pre-emerge Herbicidal Activity SETVI", "setting": "[17]; rate 63 g ai/ha", "value": 80},
      {"measurement": "Pre-emerge Herbicidal Activity SETVI", "setting": "[17]; rate 250 g ai/ha", "value": 100},
      {"measurement": "Pre-emerge Herbicidal Activity CORN", "setting": "[18]; rate 63 g ai/ha", "value": 0},
      {"measurement": "Pre-emerge Herbicidal Activity CORN", "setting": "[18]; rate 250 g ai/ha", "value": 25},
      {"measurement": "Pre-emerge Herbicidal Activity RICE", "setting": "[19]; rate 63 g ai/ha", "value": 30},
      {"measurement": "Pre-emerge Herbicidal Activity RICE", "setting": "[19]; rate 250 g ai/ha", "value": 70},
      {"measurement": "Pre-emerge Herbicidal Activity AMARE", "setting": "[20]; rate 63 g ai/ha", "value": 100},
      {"measurement": "Pre-emerge Herbicidal Activity AMARE", "setting": "[20]; rate 250 g ai/ha", "value": 100},
      {"measurement": "Post-emerge Herbicidal Activity CORN", "setting": "[21]; 63 g ai/ha", "value": 30},
      {"measurement": "Post-emerge Herbicidal Activity CORN", "setting": "[21]; 250 g ai/ha", "value": 70},
      {"measurement": "Post-emerge Herbicidal Activity RICE", "setting": "[22]; 63 g ai/ha", "value": 60},
      {"measurement": "Post-emerge Herbicidal Activity RICE", "setting": "[22]; 250 g ai/ha", "value": 75}
    ]}
  ]
}
